Measured values reported in US20240210412A1, “SULFONYL-TRIAZOLE COMPOUNDS USEFUL AS LIGANDS AND INHIBITORS OF PROSTAGLANDIN REDUCTASE 2” (University of Virginia Patent Foundation, priority 2021, published 2024).

What was measured:
Experiment in all cases: SILAC LC-MS ABPP
Type in all cases: cell-based
Settings in all cases: 25 μM 2 h, live DM93 cells
Q92974 = biological target: T1, Q92974 (Homo sapiens, UniProt Q92974)
T1 construct: endogenous in cells; host or cells: DM93 cells (SILAC), live-cell treatment
Outline: (§1)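 SILAC DM93 melanoma; heavy cells got SuTEx fragment 25 μM 2 h 37 °C, light got DMSO; then HHS-475 100 μM 2 h. Soluble fraction (100,000×g) CuAAC to desthiobiotin-azide (200 μM), light/heavy mixed 1:1, tryptic digest, avidin enrichment, LC-MS/MS.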

P08238 = biological target: T2, P08238 (Homo sapiens, UniProt P08238)
T2 construct: endogenous in cells; host or cells: DM93 cells (SILAC)
Outline: as §1

Q86VS8 = biological target: T3, Q86VS8 (Homo sapiens, UniProt Q86VS8)
T3 construct: endogenous in cells; host or cells: DM93 cells (SILAC), live-cell treatment
Outline: as §1

O94925 = biological target: T4, O94925 (Homo sapiens, UniProt O94925)
T4 construct: endogenous in cells; host or cells: DM93 cells (SILAC)
T4 sequence (O94925 55-669): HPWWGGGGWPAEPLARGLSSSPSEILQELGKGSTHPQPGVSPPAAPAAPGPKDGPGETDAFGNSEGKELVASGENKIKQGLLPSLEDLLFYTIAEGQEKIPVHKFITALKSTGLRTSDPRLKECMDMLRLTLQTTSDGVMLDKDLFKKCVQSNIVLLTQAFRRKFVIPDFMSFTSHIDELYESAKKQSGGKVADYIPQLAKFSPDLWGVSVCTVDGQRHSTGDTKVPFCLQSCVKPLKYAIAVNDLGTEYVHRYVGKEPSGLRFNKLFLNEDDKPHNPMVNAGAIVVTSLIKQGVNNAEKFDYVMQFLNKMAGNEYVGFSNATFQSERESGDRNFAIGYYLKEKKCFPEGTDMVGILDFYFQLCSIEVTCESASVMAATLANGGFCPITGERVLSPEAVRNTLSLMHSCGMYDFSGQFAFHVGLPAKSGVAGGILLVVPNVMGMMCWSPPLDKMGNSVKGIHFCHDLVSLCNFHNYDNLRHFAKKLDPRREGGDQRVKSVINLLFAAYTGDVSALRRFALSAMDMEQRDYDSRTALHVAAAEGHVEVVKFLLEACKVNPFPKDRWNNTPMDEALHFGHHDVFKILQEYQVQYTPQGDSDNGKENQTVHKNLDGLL
Outline: as §1

Q7Z460 = biological target: T5, Q7Z460 (Homo sapiens, UniProt Q7Z460)
T5 construct: endogenous in cells; host or cells: DM93 cells (SILAC), live-cell treatment
Outline: as §1

Q969T7 = biological target: T6, Q969T7 (Homo sapiens, UniProt Q969T7)
T6 construct: endogenous in cells; host or cells: DM93 cells (SILAC), live-cell treatment
T6 sequence (Q969T7 whole entry): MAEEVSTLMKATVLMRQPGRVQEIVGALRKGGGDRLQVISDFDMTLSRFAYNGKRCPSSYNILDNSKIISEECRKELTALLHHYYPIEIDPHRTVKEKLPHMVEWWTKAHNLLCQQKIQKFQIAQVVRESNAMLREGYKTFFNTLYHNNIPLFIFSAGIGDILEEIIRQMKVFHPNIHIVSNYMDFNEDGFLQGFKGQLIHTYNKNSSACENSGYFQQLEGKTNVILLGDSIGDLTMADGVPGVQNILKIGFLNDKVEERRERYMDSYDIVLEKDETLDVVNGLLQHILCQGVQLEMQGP
Outline: as §1

P13010 = biological target: T7, P13010 (Homo sapiens, UniProt P13010)
T7 construct: endogenous in cells; host or cells: DM93 cells (SILAC)
T7 sequence (P13010 2-732 limits assumed): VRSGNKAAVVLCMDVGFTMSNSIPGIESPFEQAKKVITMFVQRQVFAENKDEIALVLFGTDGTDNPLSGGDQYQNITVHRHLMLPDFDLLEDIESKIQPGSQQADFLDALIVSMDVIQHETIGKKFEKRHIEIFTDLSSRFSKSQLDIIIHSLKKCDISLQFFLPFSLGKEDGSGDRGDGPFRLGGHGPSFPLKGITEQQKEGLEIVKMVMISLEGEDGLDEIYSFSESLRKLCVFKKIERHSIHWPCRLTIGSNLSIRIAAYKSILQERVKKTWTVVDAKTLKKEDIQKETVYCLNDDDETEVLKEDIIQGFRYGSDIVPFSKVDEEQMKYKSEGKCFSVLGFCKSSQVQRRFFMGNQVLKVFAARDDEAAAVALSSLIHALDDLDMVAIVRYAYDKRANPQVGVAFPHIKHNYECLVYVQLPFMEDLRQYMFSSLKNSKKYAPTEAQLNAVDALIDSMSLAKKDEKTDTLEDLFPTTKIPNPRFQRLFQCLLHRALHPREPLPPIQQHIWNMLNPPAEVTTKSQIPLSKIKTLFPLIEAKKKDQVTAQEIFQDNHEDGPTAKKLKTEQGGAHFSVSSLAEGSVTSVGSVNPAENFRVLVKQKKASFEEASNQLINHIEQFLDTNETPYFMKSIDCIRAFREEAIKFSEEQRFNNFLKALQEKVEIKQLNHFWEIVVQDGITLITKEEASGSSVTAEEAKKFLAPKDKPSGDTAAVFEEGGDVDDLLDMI
T7 sequence (P12956 2-609 partner limits assumed): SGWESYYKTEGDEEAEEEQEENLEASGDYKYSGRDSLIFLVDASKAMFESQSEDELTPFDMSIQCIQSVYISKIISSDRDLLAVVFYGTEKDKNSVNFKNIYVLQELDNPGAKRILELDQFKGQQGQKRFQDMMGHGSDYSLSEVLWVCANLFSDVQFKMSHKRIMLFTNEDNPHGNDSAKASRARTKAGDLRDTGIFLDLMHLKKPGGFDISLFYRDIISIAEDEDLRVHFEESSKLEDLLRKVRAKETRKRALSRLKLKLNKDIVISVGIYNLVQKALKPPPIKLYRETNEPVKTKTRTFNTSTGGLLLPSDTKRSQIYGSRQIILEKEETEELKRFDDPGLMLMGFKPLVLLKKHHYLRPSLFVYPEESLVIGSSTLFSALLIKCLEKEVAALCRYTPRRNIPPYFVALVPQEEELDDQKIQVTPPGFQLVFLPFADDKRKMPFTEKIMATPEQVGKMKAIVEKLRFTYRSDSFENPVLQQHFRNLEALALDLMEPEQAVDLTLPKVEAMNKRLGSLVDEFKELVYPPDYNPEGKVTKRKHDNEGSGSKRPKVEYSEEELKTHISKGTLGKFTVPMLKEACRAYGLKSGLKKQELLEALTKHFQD
Outline: as §1

P48147 = biological target: T8, P48147 (Homo sapiens, UniProt P48147)
T8 construct: endogenous in cells; host or cells: DM93 cells (SILAC)
Outline: as §1

Q9Y2W1 = biological target: T9, Q9Y2W1 (Homo sapiens, UniProt Q9Y2W1)
T9 construct: endogenous in cells; host or cells: DM93 cells (SILAC)
Outline: as §1

P42704 = biological target: T10, P42704 (Homo sapiens, UniProt P42704)
T10 construct: endogenous in cells; host or cells: DM93 cells (SILAC)
Outline: as §1

Q9NZQ3 = biological target: T11, Q9NZQ3 (Homo sapiens, UniProt Q9NZQ3)
T11 construct: endogenous in cells; host or cells: DM93 cells (SILAC)
Outline: as §1

Q7Z6E9 = biological target: T12, Q7Z6E9 (Homo sapiens, UniProt Q7Z6E9)
T12 construct: endogenous in cells; host or cells: DM93 cells (SILAC), live-cell treatment
Outline: as §1

P36507 = biological target: T13, P36507 (Homo sapiens, UniProt P36507)
T13 construct: endogenous in cells; host or cells: DM93 (SILAC)
T13 sequence (P36507 whole entry): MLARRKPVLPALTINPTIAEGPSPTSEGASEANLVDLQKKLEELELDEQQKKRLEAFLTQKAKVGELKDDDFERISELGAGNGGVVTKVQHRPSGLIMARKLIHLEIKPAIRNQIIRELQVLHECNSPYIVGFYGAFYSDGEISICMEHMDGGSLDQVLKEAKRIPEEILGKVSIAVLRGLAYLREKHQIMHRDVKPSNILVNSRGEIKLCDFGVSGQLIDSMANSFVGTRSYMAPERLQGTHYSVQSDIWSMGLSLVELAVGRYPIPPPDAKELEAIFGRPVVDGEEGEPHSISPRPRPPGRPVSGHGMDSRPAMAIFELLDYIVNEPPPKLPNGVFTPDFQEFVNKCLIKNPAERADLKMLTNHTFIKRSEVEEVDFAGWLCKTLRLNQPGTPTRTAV
Outline: as §1

P15559 = biological target: T14, P15559 (Homo sapiens, UniProt P15559)
T14 construct: endogenous in cells; host or cells: DM93 cells (SILAC)
T14 sequence (P15559 whole entry): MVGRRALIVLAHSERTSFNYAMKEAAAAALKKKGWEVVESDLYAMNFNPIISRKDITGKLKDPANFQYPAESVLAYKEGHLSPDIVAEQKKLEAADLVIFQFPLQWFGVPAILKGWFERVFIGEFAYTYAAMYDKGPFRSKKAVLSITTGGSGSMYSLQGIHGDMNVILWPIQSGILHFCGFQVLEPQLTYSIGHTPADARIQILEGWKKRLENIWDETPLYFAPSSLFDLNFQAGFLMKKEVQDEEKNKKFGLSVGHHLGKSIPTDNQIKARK
Outline: as §1

Q9H3P2 = biological target: T15, Q9H3P2 (Homo sapiens, UniProt Q9H3P2)
T15 construct: endogenous in cells; host or cells: DM93 cells (SILAC), treated live; soluble proteome analysed
T15 sequence (Q9H3P2 whole entry): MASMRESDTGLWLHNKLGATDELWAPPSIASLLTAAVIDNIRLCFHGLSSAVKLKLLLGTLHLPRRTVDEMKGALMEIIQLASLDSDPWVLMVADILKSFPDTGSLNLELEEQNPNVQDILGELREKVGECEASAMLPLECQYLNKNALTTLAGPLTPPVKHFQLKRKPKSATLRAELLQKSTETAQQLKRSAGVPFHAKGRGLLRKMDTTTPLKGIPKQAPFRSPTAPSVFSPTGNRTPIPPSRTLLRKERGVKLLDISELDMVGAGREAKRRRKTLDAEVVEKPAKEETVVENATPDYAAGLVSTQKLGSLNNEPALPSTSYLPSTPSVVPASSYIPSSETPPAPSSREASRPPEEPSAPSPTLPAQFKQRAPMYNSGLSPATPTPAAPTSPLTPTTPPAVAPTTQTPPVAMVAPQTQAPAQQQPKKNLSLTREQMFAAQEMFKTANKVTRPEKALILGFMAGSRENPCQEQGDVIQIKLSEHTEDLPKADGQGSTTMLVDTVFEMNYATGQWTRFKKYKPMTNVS
Outline: as §1

P23921 = biological target: T16, P23921 (Homo sapiens, UniProt P23921)
T16 construct: Probe-modified proteins from the soluble fraction were conjugated to a desthiobiotin-azide tag; endogenous in cells; host or cells: DM93 (SILAC)
Outline: as §1

P50749 = biological target: T17, P50749 (Homo sapiens, UniProt P50749)
T17 construct: Probe-modified proteins from the soluble fraction were conjugated to a desthiobiotin-azide tag; endogenous in cells; host or cells: DM93 cells (SILAC)
T17 sequence (P50749 whole entry): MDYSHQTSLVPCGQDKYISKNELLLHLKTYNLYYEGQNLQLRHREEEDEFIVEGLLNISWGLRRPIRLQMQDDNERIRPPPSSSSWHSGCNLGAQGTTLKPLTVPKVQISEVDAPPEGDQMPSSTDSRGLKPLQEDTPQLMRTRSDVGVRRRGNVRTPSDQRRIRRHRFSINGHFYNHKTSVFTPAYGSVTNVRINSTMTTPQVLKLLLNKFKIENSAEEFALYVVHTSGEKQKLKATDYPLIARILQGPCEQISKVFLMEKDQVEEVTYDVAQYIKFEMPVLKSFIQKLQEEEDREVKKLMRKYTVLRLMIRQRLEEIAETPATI
Outline: as §1

P40939 = biological target: T18, P40939 (Homo sapiens, UniProt P40939)
T18 construct: endogenous in cells; host or cells: DM93 cells (SILAC)
T18 sequence (P40939 37-763): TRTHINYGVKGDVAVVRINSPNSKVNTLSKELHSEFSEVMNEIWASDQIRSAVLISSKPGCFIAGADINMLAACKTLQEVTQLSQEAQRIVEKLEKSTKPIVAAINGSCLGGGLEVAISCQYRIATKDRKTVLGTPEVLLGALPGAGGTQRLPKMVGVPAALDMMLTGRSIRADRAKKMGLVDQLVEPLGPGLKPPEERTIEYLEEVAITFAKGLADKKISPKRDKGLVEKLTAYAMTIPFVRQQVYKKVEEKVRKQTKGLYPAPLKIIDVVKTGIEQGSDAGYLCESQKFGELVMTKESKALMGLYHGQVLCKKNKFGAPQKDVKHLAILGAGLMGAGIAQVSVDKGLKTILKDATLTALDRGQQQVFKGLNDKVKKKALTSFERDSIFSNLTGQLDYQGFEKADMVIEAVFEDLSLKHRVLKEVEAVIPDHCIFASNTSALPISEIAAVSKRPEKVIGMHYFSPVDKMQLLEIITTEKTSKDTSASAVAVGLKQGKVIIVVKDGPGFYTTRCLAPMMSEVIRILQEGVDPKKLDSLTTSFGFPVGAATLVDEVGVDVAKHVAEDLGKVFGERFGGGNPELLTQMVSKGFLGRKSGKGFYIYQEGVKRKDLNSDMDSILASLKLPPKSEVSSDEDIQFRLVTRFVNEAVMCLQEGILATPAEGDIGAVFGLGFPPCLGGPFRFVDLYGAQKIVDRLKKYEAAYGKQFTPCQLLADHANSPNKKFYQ
T18 sequence (P55084 34-474 partner): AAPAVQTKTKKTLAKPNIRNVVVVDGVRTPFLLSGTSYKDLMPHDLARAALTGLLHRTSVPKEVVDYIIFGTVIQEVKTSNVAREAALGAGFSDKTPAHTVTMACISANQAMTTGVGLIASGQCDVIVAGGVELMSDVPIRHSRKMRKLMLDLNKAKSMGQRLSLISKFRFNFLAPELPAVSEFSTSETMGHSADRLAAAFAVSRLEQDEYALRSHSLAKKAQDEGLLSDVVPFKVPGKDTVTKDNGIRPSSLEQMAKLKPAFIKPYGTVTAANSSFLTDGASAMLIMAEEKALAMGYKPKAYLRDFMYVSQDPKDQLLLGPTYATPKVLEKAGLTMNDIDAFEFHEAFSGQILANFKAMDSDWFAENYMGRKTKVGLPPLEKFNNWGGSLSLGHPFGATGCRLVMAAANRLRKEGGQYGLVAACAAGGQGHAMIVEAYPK
Outline: as §1

O=C(NC1CC1)c1ccc(S(=O)(=O)n2cncn2)cc1 [HHS-0101, 4-((1H-1,2,4-triazol-1-yl)sulfonyl)-N-cyclopropylbenzamide]
liganded tyrosine site 894 (Q92974): HHS0101.Y|HHS0401.Y (tyrosine sites that showed >80% reductions (SR >5) in probe labeling in cells treated with compounds (liganded sites))
liganded tyrosine site 430 (P08238): HHS0101.Y|HHS0201.Y|HHS0301.Y|HHS0401.Y (tyrosine sites that showed >80% reductions (SR >5) in probe labeling in cells treated with compounds (liganded sites))
liganded tyrosine site 323 (Q86VS8): HHS0101.Y|HHS0401.Y|HHS0701.Y (tyrosine sites that showed >80% reductions (SR >5) in probe labeling in cells treated with compounds (liganded sites))
liganded tyrosine site 145 (O94925): HHS0101.Y (tyrosine sites that showed >80% reductions (SR >5) in probe labeling in cells treated with compounds (liganded sites))
liganded tyrosine site 304 (O94925): HHS0101.Y (tyrosine sites that showed >80% reductions (SR >5) in probe labeling in cells treated with compounds (liganded sites))
liganded tyrosine site 1267 (Q7Z460): HHS0101.Y|HHS0301.Y|HHS0401.Y (tyrosine sites that showed >80% reductions (SR >5) in probe labeling in cells treated with compounds (liganded sites))
liganded tyrosine site 85 (Q969T7): HHS0101.Y (tyrosine sites that showed >80% reductions (SR >5) in probe labeling in cells treated with compounds (liganded sites))

O=C(NCC1CC1)c1ccc(S(=O)(=O)n2cncn2)cc1 [HHS-0201, 4-((1H-1,2,4-triazol-1-yl)sulfonyl)-N-(cyclopropylmethyl)benzamide]
liganded tyrosine site 295 (P13010): HHS0201.Y (tyrosine sites that showed >80% reductions (SR >5) in probe labeling in cells treated with compounds (liganded sites))
liganded tyrosine site 473 (P48147): HHS0201.Y (tyrosine sites that showed >80% reductions (SR >5) in probe labeling in cells treated with compounds (liganded sites))
liganded tyrosine site 344 (Q9Y2W1): HHS0201.Y|HHS0301.Y (tyrosine sites that showed >80% reductions (SR >5) in probe labeling in cells treated with compounds (liganded sites))
liganded tyrosine site 1365 (P42704): HHS0201.Y (tyrosine sites that showed >80% reductions (SR >5) in probe labeling in cells treated with compounds (liganded sites))

O=C(NC1CCCCC1)c1ccc(S(=O)(=O)n2cncn2)cc1 [HHS-0301, 4-((1H-1,2,4-triazol-1-yl)sulfonyl)-N-cyclohexylbenzamide]
liganded tyrosine site 52 (Q9NZQ3): HHS0301.Y (tyrosine sites that showed >80% reductions (SR >5) in probe labeling in cells treated with compounds (liganded sites))
liganded tyrosine site 218 (Q7Z6E9): HHS0301.Y (tyrosine sites that showed >80% reductions (SR >5) in probe labeling in cells treated with compounds (liganded sites))

O=C(NCc1ccccc1)c1ccc(S(=O)(=O)n2cncn2)cc1 [HHS-0401, 4-((1H-1,2,4-triazol-1-yl)sulfonyl)-N-benzylbenzamide]
liganded tyrosine site 244 (P36507): HHS0401.Y (tyrosine sites that showed >80% reductions (SR >5) in probe labeling in cells treated with compounds (liganded sites))
liganded tyrosine site 76 (P15559): HHS0401.Y|HHS0701.Y (tyrosine sites that showed >80% reductions (SR >5) in probe labeling in cells treated with compounds (liganded sites))
liganded tyrosine site 324 (Q9H3P2): HHS0401.Y|HHS0701.Y (tyrosine sites that showed >80% reductions (SR >5) in probe labeling in cells treated with compounds (liganded sites))
liganded tyrosine site 485 (P23921): HHS0401.Y (tyrosine sites that showed >80% reductions (SR >5) in probe labeling in cells treated with compounds (liganded sites))

O=C(c1ccc(S(=O)(=O)n2cncn2)cc1)N1CCC(c2ccccc2)CC1 [HHS-0701, (4-((1H-1,2,4-triazol-1-yl)sulfonyl)phenyl)(4-phenylpiperidin-1-yl)methanone]
liganded tyrosine site 270 (P50749): HHS0701.Y (tyrosine sites that showed >80% reductions (SR >5) in probe labeling in cells treated with compounds (liganded sites))
liganded tyrosine site 343 (P40939): HHS0701.Y (tyrosine sites that showed >80% reductions (SR >5) in probe labeling in cells treated with compounds (liganded sites))
